Reference: patent US7208154B2, “Methods and compositions for the treatment of MHC-associated conditions” (Regents of the University of Michigan, priority 2002, dated 2007)

Tests used:
[1] = system: Human fibroblastoid M1 cells; assay: NO production (fluorometric nitrate/nitrite DAN assay) in M1 cells stimulated with bead-bound peptide; format: cell-based; details: for Block of NO induction by shared epitope-expressing peptide 65–79*0401: then bead-bound 65–79*0401 for 1–30 min
Protocol: DKCLA [SEQ ID NO: 16] binds to calreticulin, and inhibits binding of shared epitope-expressing peptides which trigger pro-oxidative signaling (FIG. 9). In follow up experiments the functional activity of DKCLA [SEQ ID NO: 16] was determined by measuring its effect on NO production by shared epitope-expressing peptides (i.e. 65–79*0401) and a control peptide, 65–79*0402. Human fibroblastoid M1 cells were pre-incubated overnight with or without 50 µg/ml of DKCLA. Subsequently culture medium was changed to NO assay buffer (20 mM Tris, pH7.6, 100 mM NaCl, 0.1 mM EDTA), and cells were stimulated for 1–30 min with Sepharose bead-bound peptide 65–79*0401 or control peptide 65–79*0402. At different time points, cultures were collected and NO levels were measured. Briefly, supernatants were collected and spun down to remove cell debris. Nitrate in the supernatant were first transformed to nitrite by incubation with nitrate reductase for 60 min in room temperature. Then, DAN was added to yield fluorescent 2,3-naphthotriazole. Fluorescence was measured with a Perkin-Elmer Fusion™ Universal Microplate Analyzer, using a wavelength excitation of 375 nm and an emission wavelength of 415 nm.
The nitrite and nitrate assay was a modified method from fluorometric determination of nitrite [Thomas Pet al. Anal. Biochem., 214:11–16, (1993), Miles AM et al. Methods 7: 40–47, (1995)]. Cell culture medium was changed to NO assay buffer (20mM Tris, pH7.6, 100 mM NaCl, 0.1 mM EDTA) and was treated by bead bound peptides. After treatment, supernatant was spun down to remove cell debris. Nitrate in the supernatant was first transformed to nitrite by incubation with Nitrate Reductase for 60min in room temperature. Then 2,3-diaminonaphthalene (DAN) was added to yield fluorescent 2,3-naphthotriazole. Fluorescence was measured by a FUSION™ Universal Microplate Analyzer with excitation at 375 nm and emission at 415 nm.

calreticulin [2] = target: T1, calreticulin (Homo sapiens, UniProt P27797); assay: Blocking of shared epitope peptide-triggered signaling (cAMP-inhibitory effect, genoprotection) in M1 cells; format: cell-based; design: endogenous in cells; host or cells: M1 human fibroblastoid cells; details: M1 cells pre-incubated or transfected
T1 sequence (P27797 18-417): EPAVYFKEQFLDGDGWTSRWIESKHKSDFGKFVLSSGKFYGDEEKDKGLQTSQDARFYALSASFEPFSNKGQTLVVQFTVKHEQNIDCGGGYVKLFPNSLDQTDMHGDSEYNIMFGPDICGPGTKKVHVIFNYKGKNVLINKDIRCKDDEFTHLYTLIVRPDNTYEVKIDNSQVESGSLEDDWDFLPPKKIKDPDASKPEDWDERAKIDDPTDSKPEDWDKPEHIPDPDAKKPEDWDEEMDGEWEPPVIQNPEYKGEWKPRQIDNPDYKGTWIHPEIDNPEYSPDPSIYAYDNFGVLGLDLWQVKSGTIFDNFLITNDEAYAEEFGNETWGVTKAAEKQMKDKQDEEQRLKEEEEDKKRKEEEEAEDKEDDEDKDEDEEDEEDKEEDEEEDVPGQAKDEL
Protocol: Finally, in order to determine whether these neuroprotective peptides transduce their signaling through calreticulin, two complementing protocols were executed: i) Inhibition of peptide-calreticulin interaction using anti-calreticulin antibodies, or ii) blocking calreticulin expression with antisense oligonucleotides (as shown in FIG. 13C and FIG. 13D).
M1 cells were cultured in 6-well plate to 60–70% confluency. M1 cells were treated by 0.2 μM antisense oligonucleotide for 24 to 48 hr, using Lipofectin as a carrier. Calreticulin expression levels were determined by Western-blot and flow cytometry, using anti-calreticulin antibodies. Polyclonal rabbit anti-human calreticulin antibodies were obtained from ABR, Golden, CO.

calreticulin [3] = target: T1, calreticulin; assay: Surface plasmon resonance, calreticulin immobilized on CM5 chip, pentapeptide binding; design: GST (cleaved yes); made in house; host or cells: E. coli (strain provided by Dr. Michalak); details: Biacore, 25° C., peptides 25–180 μM
Protocol: The E. coli strain expressing GST fusion Calreticulin was kindly provided by Dr. Michalak [Baksh S et al. Protein Expr Purif., 3, 322–331, (1992)]. GST-Calreticulin was purified according to the manual of GST Gene Fusion System from Pharmacia. Factor Xa was used to liberate GST from calreticulin. In an additional step the column was treated with mono-Q to achieve >90% purity of calreticulin (MW=60 kD).
Prior to use, biosensor chips CM5 were docked into a Biacore® 2000 and preconditioned in water at 100 μl/min by applying two consecutive 20-μl pulses of 50 mM NaOH, then 10 mM HCl, and finally 0.1% SDS. Calreticulin was immobilized on CM5 surface by standard primary amine coupling [Lofas S et al. Biosensors & Bioelectronics, 10: 813–822, (1995), Johnsson B et al. J Mol Recognit., 8: 125–131, (1995), Karlsson R et al. J. Immunol. Methods, 200:121–133. (1997)]. Immobilizations were conducted at 25° C. in HBS-EP (10 mM HEPES, pH7.4, 150 mM NaCl, 1 mM EDTA, 0.005% Surfactant P-20), with a flow of 10 μl/min. […]
Shared epitope-expressing peptides potently bind to, and trigger, signaling through calreticulin. […] However, when calreticulin binding activities of the panel of pentapeptides were determined, one conspicuous exception was discovered, that is DKCLA FIG. 15 peptide #7 (Q70D).

[4] = M1 cells pre-incubated overnight with 50 µg/ml

Substance | Effect on baseline NO levels [1, 4] | Block of NO induction by shared epitope-expressing peptide 65–79*0401 [1, 4] | Impact on NO levels with control peptide 65–79*0402 ([1]; bead-bound control peptide 65–79*0402) | Block of shared epitope peptide-triggered signaling / inhibitory effect on genoprotection (calreticulin [2]) | Binding to immobilized calreticulin (calreticulin [3])
DKCLA [Asp Lys Cys Leu Ala] | no measureable effect | blocked NO induction | no impact | prevented | bind very strongly to calreticulin
Gln Lys Arg Ala Glu (QKRAE) [pentapeptide with A74E substitution] | – | did not inhibit 65–79*0401-triggered NO production | – | – | did not bind to calreticulin
